In patent publication US6589984B1, “Benzofurylpyrone derivatives” (Teijin Limited, priority 1998, dated 2003):

Experiments:
[1] = system: Human hepatic cancer cells HepG2; assay: TG production inhibiting activity (14C-acetic acid incorporation into TG) in HepG2 cells; assay type: cell-based; conditions: for IC50: group criterion
In short: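 HepG2 cells cultured 6 days in eRDF with 10% bovine serum, then in serum-free eRDF given compound (diluted from 20 mM DMSO stock) plus 14C-acetic acid for one day at 37 °C, 5% CO2. Lipids extracted with hexane/isopropanol 2:1 and separated by TLC; the TG spot was cut out and counted by liquid scintillation.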

[2] = Drug effect evaluation test: serum TG, total cholesterol and HDL in rats after 7 days of oral dosing; assay type: in vivo; conditions: SD male rats, 4 hours after final administration
Procedure: 6-(benzofuran-2-yl)-3,5-dimethyl-4-hydroxy-2H-pyran-2-one (Example 2) was suspended in a 0.5% carboxymethyl cellulose Na aqueous solution (vehicle) to prepare 20 mg/ml and 60 mg/ml administration solutions, and these were orally administered to 6-week-old SD male rats at a dose of 5 ml/kg once a day, for 7 consecutive days. CE-2 by Nihon Crea Co. was used for the rat feed, and the rats were allowed free access to food and water. The rats were separated into a vehicle-administered group of 6 rats and a drug-administered group of 6 rats for a test. At 4 hours after the final drug administration, the rats were killed under ether anesthesia, blood was drawn from the abdominal aorta, and the serum levels of TG, total cholesterol (TC) and HDL-were measured.
Triglyceride EII-HA Test Wako (product of Wako Junyaku Kogyo) was used for the TG measurement, HA Test Wako/Cholesterol E-HA Test Wako (product of Wako Junyaku Kogyo) was used for the total cholesterol (TC) measurement, and HDL-cholesterol Test Wako (product of Wako Junyaku Kogyo) was used for the HDL measurement.

[3] = Homo sapiens, HepG2, alternatives: IC50 less than 10 μM, or at least 30% inhibition at 1 μM, or at least 50% inhibition at 10 μM
[4] = 100 mg/kg orally once a day for 7 days
[5] = 300 mg/kg orally once a day for 7 days
[6] = Homo sapiens, HepG2, alternatives: IC50 at least 10 μM and less than 100 μM, or at least 5% and less than 30% inhibition at 1 μM, or at least 30% and less than 50% inhibition at 10 μM

SMILES | IC50 [1, 3] [µM] | IC50 [1, 6] [µM] | further results
Cc1c(-c2cc3ccccc3o2)oc(=O)c(C)c1O [Example 2, 6-(benzofuran-2-yl)-3,5-dimethyl-4-hydroxy-2H-pyran-2-one] | < 10 |  | triglyceride biosynthesis inhibiting activity ([1]; HepG2, conclusion in words from Table 1): exhibits triglyceride biosynthesis inhibiting activity; inhibition at 1 µM ([1]; Homo sapiens, 24 h, sample concentration 1 μM, HepG2, one day culture with 14C-acetic acid): 22%; inhibition at 10 µM ([1]; Homo sapiens, 24 h, sample concentration 10 μM, HepG2, one day culture with 14C-acetic acid): 70%; inhibition at 100 µM ([1]; Homo sapiens, 24 h, sample concentration 100 μM, HepG2, one day culture with 14C-acetic acid): 98%; Serum HDL-C (mg/dl) (mean ± SE) [2, 4]: 35.0 ± 3.1 mg/dL; Serum TG (mg/dl) (mean ± SE) [2, 4]: 94.8 ± 6.5 mg/dL; Serum HDL-C (mg/dl) (mean ± SE) [2, 5]: 42.2 ± 3.8 mg/dL; Serum TG (mg/dl) (mean ± SE) [2, 5]: 74.8 ± 10.7 mg/dL
COC(=O)CCOc1ccc2cc(-c3oc(=O)c(C)c(OC(C)=O)c3C)oc2c1 [Example 278, 4-acetyloxy-3,5-dimethyl-6-(6-(2-(methoxycarbonyl)ethoxy)benzofuran-2-yl)-2H-pyran-2-one] |  | 10 to 100 | 
CC(=O)OCCOc1ccc2cc(-c3oc(=O)c(C)c(OC(C)=O)c3C)oc2c1 [Example 280, 4-acetyloxy-6-(6-(2-(acetyloxy)ethoxy)benzofuran-2-yl)-3,5-dimethyl-2H-pyran-2-one] |  | 10 to 100 | 
Cc1c(-c2cc3cccc(O)c3o2)oc(=O)c(C)c1O [Example 281, 3,5-dimethyl-4-hydroxy-6-(7-hydroxybenzofuran-2-yl)-2H-pyran-2-one] |  | 10 to 100 | 
CC(=O)Oc1c(C)c(-c2cc3cccc(OC(C)=O)c3o2)oc(=O)c1C [Example 284, 4-acetyloxy-6-(7-acetyloxybenzofuran-2-yl)-3,5-dimethyl-2H-pyran-2-one] |  | 10 to 100 | 
CC(=O)Oc1c(C)c(-c2cc3cccc(OCc4ccccc4)c3o2)oc(=O)c1C [Example 285, 4-acetyloxy-6-(7-benzyloxybenzofuran-2-yl)-3,5-dimethyl-2H-pyran-2-one] | < 10 |  | 
Cc1c(-c2cc3cccc(OCc4ccccc4)c3o2)oc(=O)c(C)c1O [Example 286, 6-(7-benzyloxybenzofuran-2-yl)-3,5-dimethyl-4-hydroxy-2H-pyran-2-one] |  | 10 to 100 | 
CC(=O)Oc1c(C)c(-c2cc3ccccc3o2)oc(=O)c1C(C)C [Example 287, 4-acetyloxy-6-(benzofuran-2-yl)-3-isopropyl-5-methyl-2H-pyran-2-one] |  | 10 to 100 | 
COC(=O)c1ccc2oc(-c3oc(=O)c(C)c(O)c3C)cc2c1 [Example 290, 3,5-dimethyl-4-hydroxy-6-(5-(methoxycarbonyl)benzofuran-2-yl)-2H-pyran-2-one] | < 10 |  | 
COCOc1ccc2cc(-c3oc(=O)c(C)c(O)c3C)oc2c1 [Example 291, 3,5-dimethyl-4-hydroxy-6-(6-methoxymethoxybenzofuran-2-yl)-2H-pyran-2-one] | < 10 |  | 
COCOc1ccc2cc(-c3oc(=O)c(C)c(OC(C)=O)c3C)oc2c1 [Example 292, 4-acetyloxy-3,5-dimethyl-6-(6-methoxymethoxybenzofuran-2-yl)-2H-pyran-2-one] |  | 10 to 100 | 

More lines, main results first:

IC50 [1, 3] [µM] | IC50 [1, 6] [µM] | SMILES | further results
 | 10 to 100 | CC(=O)Oc1c(C)c(-c2cc3cc(C(=O)Nc4ccccc4)ccc3o2)oc(=O)c1C [Example 295, 4-acetyloxy-3,5-dimethyl-6-(5-(phenylcarbamoyl)benzofuran-2-yl)-2H-pyran-2-one] | 
 | 10 to 100 | CC(=O)Oc1c(C)c(-c2cc3cc(OC(=O)c4ccccc4)ccc3o2)oc(=O)c1C [Example 296, 4-acetyloxy-6-(5-benzoyloxybenzofuran-2-yl)-3,5-dimethyl-2H-pyran-2-one] | 
< 10 |  | Cc1c(-c2cc3cc(N(C)S(=O)(=O)c4ccc(Cl)cc4)ccc3o2)oc(=O)c(C)c1O [Example 297, 6-(5-(N-(4-chlorophenylsulfonyl)-N-methylamino)benzofuran-2-yl)-3,5-dimethyl-4-hydroxy-2H-pyran-2-one] | 
< 10 |  | Cc1c(-c2cc3cc(C(=O)N(C)c4ccccc4)ccc3o2)oc(=O)c(C)c1O [Example 299, 3,5-dimethyl-4-hydroxy-6-(5-(N-methyl-N-phenylcarbamoyl)benzofuran-2-yl)-2H-pyran-2-one] | 
< 10 |  | Cc1c(-c2cc3cc(C(=O)N4CCc5ccccc5C4)ccc3o2)oc(=O)c(C)c1O [Example 302, 3,5-dimethyl-4-hydroxy-6-(5-(1,3,4-trihydroisoquinolin-2-ylcarbonyl)benzofuran-2-yl)-2H-pyran-2-one] | 
< 10 |  | Cc1c(-c2cc3cc(OCc4cncc(O)c4)ccc3o2)oc(=O)c(C)c1O [Example 304, 3,5-dimethyl-4-hydroxy-6-(5-(5-hydroxy-3-pyridylmethoxy)benzofuran-2-yl)-2H-pyran-2-one] | 
< 10 |  | Cc1c(-c2cc3cc(C(=O)Nc4ccc(S(N)(=O)=O)cc4)ccc3o2)oc(=O)c(C)c1O [Example 305, 3,5-dimethyl-4-hydroxy-6-(5-(4-(sulfamoyl)phenylcarbamoyl)benzofuran-2-yl)-2H-pyran-2-one] | 
< 10 |  | Cc1c(-c2cc3cc(C(=O)NCc4ccncc4)ccc3o2)oc(=O)c(C)c1O [Example 306, 3,5-dimethyl-4-hydroxy-6-(5-(4-pyridylmethylcarbamoyl)benzofuran-2-yl)-2H-pyran-2-one] | 
< 10 |  | Cc1c(-c2cc3cc(C4CCNCC4)ccc3o2)oc(=O)c(C)c1O [Example 307, 3,5-dimethyl-4-hydroxy-6-(5-(4-piperidinyl)benzofuran-2-yl)-2H-pyran-2-one] | 
< 10 |  | Cc1c(-c2cc3cc(C(=O)N(C)Cc4ccccc4)ccc3o2)oc(=O)c(C)c1O [Example 308, 6-(5-(N-benzyl-N-methylcarbamoyl)benzofuran-2-yl)-3,5-dimethyl-4-hydroxy-2H-pyran-2-one] | 
< 10 |  | Cc1c(-c2cc3cc(C(=O)N(C)c4ccncc4)ccc3o2)oc(=O)c(C)c1O [Example 309, 3,5-dimethyl-4-hydroxy-6-(5-(N-methyl-N-(4-pyridyl)carbamoyl)benzofuran-2-yl)-2H-pyran-2-one] | 
